One data set can be described thus: in vivo. As to conditions: po, mouse, preliminary, read-out: Toxicity (LD50).
Data set [1] has as its system KB-8-5 cells. The data set is described as follows: resistance modification index (RMI) test with vincristine in multidrug-resistant cells (formazan colorimetric measurement). It is filed as cell-based, human. As to conditions: RMI at 0.1·IC50 of the substance; RMI = IC50 vincristine without / with test substance; n = 2 (A-E) or 4 (verapamil). From the text: The modifying activity of multiple resistance to cytostatics of the compounds of formula I, of rac-N-(3,4-dimethoxyphenethyl)-2-(3,4-dimethoxyphenyl)-β,N-dimethyl-m-dithiane-2-propanamine and of usual reference substances was investigated as follows:
(§1) KB-8-5 cells, a human cell line with multiple resistance to cytostatics, and KB-3-1 cells, a correspondingly sensitive cell line [Cell. Mol. Genet. 11, 117-126, (1985) and Science 232, 643-645, (1986)], were cultivated in suitable media [Cancer Res. 94, 267-275, (1984), Exp. Hematol. 12, 559-567, (1984), Eliason, Ramuz & Kaufmann in Int. J. Cancer 46, 113-117, (1990)].
(§2) The testing and the determination of cytotoxicity are based on the ability of living cells to reduce 3-(4,5-dimethylthiazol-2-yl)-2,5-diphenyltetrazolium bromide to the corresponding blue formazan (colorimetric measurement) [J. Immunol. Methods 65, 55-63, (1985)]. The cells were incubated for 2 days in separate containers. The compounds selected for the biological investigation were added to the cell cultures in such a manner that the serial concentrations 10^-8 M, 10^-7 M, 10^-6 M, 10^-5 M and 10^-4 M were achieved. Vincristine in 4 dilution series (3·10^-9 M, 10^-8 M, 3·10^-8 M and 10^-7 M for KB-8-5 cells and 30 times less for the KB-3-1 cells) was added thereto. After incubating for 5 days the cell count was measured at 540 nm using the formazan color reaction. The evaluation was carried out by calculating a resistance modification index, RMI, which is the ratio between the IC50 value of vincristine in the absence of a test substance and the IC50 value of vincristine in the presence of a test substance. [formula]
(RMI0.1 ≡RMI at 0.1·IC50 of the substance).

The subject of data set [2] is KB-8-5 cells. As to the kind of experiment: cytotoxicity (IC50) of the test substance, MTT/formazan color reaction. It counts as cell-based. As to conditions: Homo sapiens, 120 h.
Source text: as §1
as §2, with “The biological test is based on the ability of the test substance to lower the concentration of a standard cytostatic which is required to kill 50% of the cells. The testing” for “The testing”
In order to compare all activities of compounds from different classes, a RMI0.1 is defined: this is the RMI value of a substance which is obtained with the ten-fold lower concentration than the IC50 value. (RMI0.1 ≡RMI at 0.1·IC50 of the substance). […] The preliminary toxicological data (LD50, mouse) after oral administration of the test compound are also given.

The subject of data set [3] is multiple resistance to cytostatics (multidrug resistance). The data set is described as follows: elimination of multiple resistance to cytostatics (literature and background statements). The note with it: compared with compounds of formula I.
For data set [4] the test system is unchanged. As to conditions: literature; cited from earlier work.
For data set [5] the following is noted: background statement, no test given; cited from earlier work.

Where two headings read alike, the source gives them in different places.

On to `COc1ccc(C2(CC(C)CN(C)CCc3ccc(Cl)cc3)SCCCS2)cc1OC.Cl` (racemic) [E, rac-N-(4-chlorophenethyl)-2-(3,4-dimethoxyphenyl)-β,N-dimethyl-m-dithiane-2-propanamine hydrochloride], for which the LD50 (as a rule, the dose expected to kill half of the subjects tested) in the data set “in vivo” lay within 2500 to 5000 mg/kg. Moreover, the “Vincristine RMI0.1” value in the data set on KB-8-5 cells [1] is 24. Moreover, in the data set on KB-8-5 cells [2] (read-out: IC50), the IC50 (in general, the concentration at which inhibition is half-maximal) was found to be 7.7 µM.
Regarding `COc1ccc(CCN(C)CCC[C@](C#N)(c2ccc(OC)c(OC)c2)C(C)C)cc1OC` [(+)Verapamil, reference compound], in the data set with KB-8-5 cells [1], the “Vincristine RMI0.1” value is listed as 12. In addition, in the data set on KB-8-5 cells [2], the IC50 turned out to be 62 µM.
For the molecule `COc1ccc(CCN(C)CC(C)CC2(c3ccc(C)cc3)SCCCS2)cc1OC.Cl` (racemic) [B, rac-N-(3,4-dimethoxyphenethyl)-β,N-dimethyl-2-(4-tolyl)-m-dithiane-2-propanamine hydrochloride], in the data set “in vivo”, the LD50 was in the range of 625 to 1250 mg/kg. Moreover, in the data set with KB-8-5 cells [1], the “Vincristine RMI0.1” value came out at 159. In addition, the IC50 in the data set on KB-8-5 cells [2] (read-out: IC50) was determined as 14 µM.
For `COc1ccc(C2(CN(C)CC(C)CC3(c4cc(OC)c(OC)c(OC)c4)SCCCS3)CCC2)cc1OC.Cl` (racemic) [C, rac-N-[[1-(3,4-dimethoxyphenyl)cyclobutyl]methyl]-β,N-dimethyl-2-(3,4,5-trimethoxyphenyl)-m-dithiane-2-propanamine hydrochloride], in that order: 1000 to 2000 mg/kg, 224 and 21 µM.
On the same counts, the results for `COc1ccc(CCN(C)CC(C)CC2(c3ccc(Cl)cc3)SCCCS2)cc1OC.Cl` (racemic) [A, rac-2-(4-Chlorophenyl)-N-(3,4-dimethoxyphenethyl)-β,N-dimethyl-m-dithiane-2-propanamine hydrochloride] are 1250 to 2500 mg/kg, 216 and 14 µM.
In the case of `COc1ccc(CCN(C)CCCC2(c3ccc4ccccc4c3)SCCCS2)cc1OC` (racemic) [rac-N-(3,4-dimethoxyphenethyl)-N-methyl-2-(2-naphthyl)-m-dithiane-2-propanamine], the “activity vis-a-vis the novel compounds of formula I” value in data set [3] is “clearly lower activity”. The “activity in eliminating multiple resistance” value in data set [4] is given as “certain activity in partially or completely eliminating multiple resistance”. Further, the toxicity entry in data set [5] was “relatively toxic”.
On to `C=C[C@H]1C[N@@]2CC[C@H]1C[C@@H]2[C@@H](O)c1ccnc2ccc(OC)cc12` [quinidine], for which the “activity in eliminating multiple resistance” value in data set [4] was “certain activity in partially or completely eliminating multiple resistance”.
In the case of `COc1ccc(C2(CN(C)CC(C)CC3(c4ccc(OC)c(OC)c4)SCCCS3)CCC2)cc1OC.Cl` (racemic) [D, rac-2-(3,4-dimethoxyphenyl)-N-[[1-(3,4-dimethoxyphenyl)cyclobutyl]methyl]-β,N-dimethyl-m-dithiane-2-propanamine hydrochloride], the LD50 in the data set “in vivo” lay within 1000 to 2000 mg/kg. Further, the “Vincristine RMI0.1” value in the data set with KB-8-5 cells [1] turned out to be 163. Moreover, the IC50 in the data set with KB-8-5 cells [2] (read-out: IC50) was found to be 21 µM.
Take `COc1ccc(CCN(C)CCC[C@@](C#N)(c2ccc(OC)c(OC)c2)C(C)C)cc1OC` [(-)Verapamil, reference compound]: the “Vincristine RMI0.1” value in the data set with KB-8-5 cells [1] is reported as 47. Further, the half-maximal inhibitory concentration (IC50) with KB-8-5 cells [2] amounted to 72 µM.
Take `CN1CCN(CCCN2c3ccccc3Sc3ccc(C(F)(F)F)cc32)CC1` [trifluoperazine]: the “activity in eliminating multiple resistance” value in data set [4] was “certain activity in partially or completely eliminating multiple resistance”.
On to `COc1ccc(CCN(C)CCCC(C#N)(c2ccc(OC)c(OC)c2)C(C)C)cc1OC` (stereo not shown) [verapamil], for which the “activity in eliminating multiple resistance” value in data set [4] is reported as “certain activity in partially or completely eliminating multiple resistance”.

The record behind these values is patent publication US5405866A, “Multidrug resistance modifying dithianes” (Hoffmann-La Roche Inc., priority 1991, dated 1995).
